# Test results taken from PMC9081329, “Pharmacokinetics, Mass Balance, Excretion, and Tissue Distribution of Plasmalogen Precursor PPI-1011” (Frontiers in Cell and Developmental Biology, 2022).
# Test: Single dose tissue distribution study (QWBA, LSC of blood and plasma)
# Format: in vivo, Sprague-Dawley rats
# Method: Six male rats were administered a single oral dose of [^14C]PPI-1011 at 100 mg/kg (200 μCi/kg) and one rat was sacrificed at each of the following time points after the administration of the dose: 8, 12, 18, 24, 48, or 168 h. Terminal blood was collected by cardiac puncture directly into tubes with K2EDTA, an aliquot was stored at 4°C until LSC was performed for radioactivity, while the remaining blood was processed to plasma and stored at −20°C until LSC. Following blood collection, the carcasses were frozen in a cold bath with hexanes and dry ice for at least 8 min and then dried and stored at −70°C for at least 5 h. The carcasses were transferred to a −20°C freezer for at least 12 h before embedding.
# QWBA was used to determine radioactivity concentrations in the caecum (contents and mucosa), large intestine (contents and mucosa), small intestine (contents and mucosa), stomach (contents and mucosa), brain, choroid plexus, spinal cord, bone, skin, adrenal gland, pineal body, pituitary gland, thyroid gland, liver, kidney (cortex, medulla and whole kidney), urinary bladder (contents and wall), brown fat, white fat, eye (lens, uveal tract and whole eye), epididymis, prostate gland, testis, ovary, uterus, lung, exorbital lachrymal gland, Harderian gland, pancreas, salivary gland, skeletal muscle, myocardium, cardiac blood, bone marrow, lymph node, spleen, and thymus. As well, LSC was used to determine the total radioactivity in the whole blood and plasma.
# The whole-body cryosectioning technique described by ([Ullberg, 1977]) was the basis for embedding and cryosectioning the rats assigned to this study. Each frozen carcass was shaved, and then the limbs and tail were removed prior to embedding. Chilled (4°C) 3% CMC (low viscosity) was utilized to provide a firm support of reinforced ice around each rat and for a secure attachment to the microtome stage. Upon thorough freezing of the embedding medium surrounding each rat, the frozen CMC block was removed from the freezing bath and four 3/8 inch holes were drilled into the block. One cryosection quality control standard (CQCS) was prepared with a known amount of radioactivity and at least 1 ml aliquots were added to each of the four drilled holes. CQCS data were utilized to evaluate the overall performance of the QWBA assay.
# Each frozen rat was sagittally trimmed (50–100 μm) at −20°C until exposure of a few target tissues employing a Leica Cryomacrocut heavy-duty microtome (Leica Microsystems Inc.,). Disposable stainless steel Feather type H45L knives (Feather Safety Razor Co., Ltd.) were utilized for trimming and sectioning each frozen rat. Several thinner sections (50 μm) were discarded prior to obtaining multiple 50 μm sections at various cryosectioning levels for QWBA analysis. Upon the collection of at least 60 target tissues in multiple cryosectioning levels, the cryosections were kept in the Cryomacrocut cryochamber for a minimum of 18 h for dehydration depending upon the number of cryosections within the cryochamber. After dehydration was complete, the cryosections were transferred to ambient temperature for processing. Mounted whole-body cryosections and a set of 15 standards were sandwiched between a standard phosphor screen and an exposure cassette. All cryosections were exposed to the phosphor screen for 4-days in a cabinet protected with lead prior to scanning using a Typhoon PhosphorImager (Cytiva). MCID™ Analysis software (InterFocus Ltd.) was utilized to generate a calibration curve of the STD nominal concentrations (nCi/g) versus PhosphorImager response (counts/μm^2 minus background) by weighted (1/x) linear regression analysis ([Potchoiba et al., 1995]; [Potchoiba et al., 1998]). The linear regression curve was then utilized to determine the concentration (nCi/g) of total radioactivity in whole-body tissues and blood. Radioactivity concentrations were expressed as μg Eq/g based on the specific activity of the compound in the final dose formulations. […]
# [1] = 12 h post single oral 100 mg/kg
# [2] = 18 h post single oral 100 mg/kg
# [3] = 24 h post single oral 100 mg/kg
structure (smiles),measurement,setting,value
CC/C=C\C/C=C\C/C=C\C/C=C\C/C=C\C/C=C\CCC(=O)O[C@H](CO[14CH2]CCCCCCCCCCCCCCC)COC(=O)CCCCC1CCSS1 (stereo partly shown) [[^14C]PPI-1011],"Radioactivity concentration, Olfactory Bulb",[1],2.01 μg equivalents/g
same,"Radioactivity concentration, Pancreas",[1],52.7 μg equivalents/g
same,"Radioactivity concentration, Parotid Gland",[1],30.4 μg equivalents/g
same,"Radioactivity concentration, Pineal Gland",[1],12.1 μg equivalents/g
same,"Radioactivity concentration, Pituitary Gland",[1],21.2 μg equivalents/g
same,"Radioactivity concentration, Preputial Gland",[1],214 μg equivalents/g
same,"Radioactivity concentration, Prostate",[1],11.8 μg equivalents/g
same,"Radioactivity concentration, Renal Cortex",[1],46.6 μg equivalents/g
same,"Radioactivity concentration, Renal Medulla",[1],53.2 μg equivalents/g
same,"Radioactivity concentration, Salivary Gland",[1],31.4 μg equivalents/g
same,"Radioactivity concentration, Seminal Vesicles",[1],2.99 μg equivalents/g
same,"Radioactivity concentration, Skin - Non-Pigmented",[1],18.0 μg equivalents/g
same,"Radioactivity concentration, Small Intestines",[1],347 μg equivalents/g
same,"Radioactivity concentration, Spinal Cord",[1],2.76 μg equivalents/g
same,"Radioactivity concentration, Spleen",[1],111 μg equivalents/g
same,"Radioactivity concentration, Stomach",[1],22.9 μg equivalents/g
same,"Radioactivity concentration, Testis",[1],4.12 μg equivalents/g
same,"Radioactivity concentration, Thalamus",[1],2.31 μg equivalents/g
same,"Radioactivity concentration, Thymus",[1],12.2 μg equivalents/g
same,"Radioactivity concentration, Thyroid",[1],43.1 μg equivalents/g
same,"Radioactivity concentration, Whole Brain",[1],2.48 μg equivalents/g
same,"Radioactivity concentration, Adipose - Brown",[2],66.0 μg equivalents/g
same,"Radioactivity concentration, Adipose - Brown (Vessel Wall)",[2],94.2 μg equivalents/g
same,"Radioactivity concentration, Adipose - Subcutaneous",[2],73.9 μg equivalents/g
same,"Radioactivity concentration, Adipose - Visceral",[2],75.6 μg equivalents/g
same,"Radioactivity concentration, Adrenal Gland",[2],185 μg equivalents/g
same,"Radioactivity concentration, Bladder Wall",[2],14.5 μg equivalents/g
same,"Radioactivity concentration, Blood - QWBA",[2],9.62 μg equivalents/g
same,"Radioactivity concentration, Bone Marrow",[2],22.3 μg equivalents/g
same,"Radioactivity concentration, Bone Surface",[2],1.25 μg equivalents/g
same,"Radioactivity concentration, Cecum",[2],177 μg equivalents/g
same,"Radioactivity concentration, Cerebellum",[2],3.03 μg equivalents/g
same,"Radioactivity concentration, Cerebrum",[2],2.49 μg equivalents/g
same,"Radioactivity concentration, Choroid Plexus",[2],12.8 μg equivalents/g
same,"Radioactivity concentration, Colliculus",[2],2.94 μg equivalents/g
same,"Radioactivity concentration, Diaphragm",[2],40.4 μg equivalents/g
same,"Radioactivity concentration, Epididymis",[2],67.7 μg equivalents/g
same,"Radioactivity concentration, Esophagus",[2],15.0 μg equivalents/g
same,"Radioactivity concentration, Exorbital Lacrimal Gland",[2],8.74 μg equivalents/g
same,"Radioactivity concentration, Gastric Mucosa",[2],70.1 μg equivalents/g
same,"Radioactivity concentration, Harderian Gland",[2],14.7 μg equivalents/g
same,"Radioactivity concentration, Intra-Orbital Lacrimal Gland",[2],8.91 μg equivalents/g
same,"Radioactivity concentration, Kidney",[2],36.1 μg equivalents/g
same,"Radioactivity concentration, Large Intestines",[2],154 μg equivalents/g
same,"Radioactivity concentration, Liver",[2],121 μg equivalents/g
same,"Radioactivity concentration, Lung",[2],45.4 μg equivalents/g
same,"Radioactivity concentration, Lymph Node",[2],22.5 μg equivalents/g
same,"Radioactivity concentration, Medulla Oblongata",[2],2.23 μg equivalents/g
same,"Radioactivity concentration, Muscle",[2],9.63 μg equivalents/g
same,"Radioactivity concentration, Myocardium",[2],42.4 μg equivalents/g
same,"Radioactivity concentration, Nasal Turbinates",[2],6.43 μg equivalents/g
same,"Radioactivity concentration, Ocular - Uveal Tract",[2],5.32 μg equivalents/g
same,"Radioactivity concentration, Ocular - Whole Eye",[2],1.65 μg equivalents/g
same,"Radioactivity concentration, Olfactory Bulb",[2],1.75 μg equivalents/g
same,"Radioactivity concentration, Pancreas",[2],39.8 μg equivalents/g
same,"Radioactivity concentration, Parotid Gland",[2],35.2 μg equivalents/g
same,"Radioactivity concentration, Pineal Gland",[2],16.2 μg equivalents/g
same,"Radioactivity concentration, Pituitary Gland",[2],22.0 μg equivalents/g
same,"Radioactivity concentration, Preputial Gland",[2],78.0 μg equivalents/g
same,"Radioactivity concentration, Prostate",[2],28.0 μg equivalents/g
same,"Radioactivity concentration, Renal Cortex",[2],38.1 μg equivalents/g
same,"Radioactivity concentration, Renal Medulla",[2],23.0 μg equivalents/g
same,"Radioactivity concentration, Salivary Gland",[2],28.8 μg equivalents/g
same,"Radioactivity concentration, Skin - Non-Pigmented",[2],12.0 μg equivalents/g
same,"Radioactivity concentration, Small Intestines",[2],239 μg equivalents/g
same,"Radioactivity concentration, Spinal Cord",[2],3.20 μg equivalents/g
same,"Radioactivity concentration, Spleen",[2],71.3 μg equivalents/g
same,"Radioactivity concentration, Stomach",[2],21.6 μg equivalents/g
same,"Radioactivity concentration, Testis",[2],5.09 μg equivalents/g
same,"Radioactivity concentration, Thalamus",[2],2.20 μg equivalents/g
same,"Radioactivity concentration, Thymus",[2],11.8 μg equivalents/g
same,"Radioactivity concentration, Thyroid",[2],38.5 μg equivalents/g
same,"Radioactivity concentration, Whole Brain",[2],2.70 μg equivalents/g
same,"Radioactivity concentration, Adipose - Brown",[3],133 μg equivalents/g
same,"Radioactivity concentration, Adipose - Brown (Vessel Wall)",[3],110 μg equivalents/g
same,"Radioactivity concentration, Adipose - Subcutaneous",[3],70.1 μg equivalents/g
same,"Radioactivity concentration, Adipose - Visceral",[3],71.6 μg equivalents/g
same,"Radioactivity concentration, Adrenal Gland",[3],155 μg equivalents/g
same,"Radioactivity concentration, Bladder Wall",[3],7.69 μg equivalents/g
same,"Radioactivity concentration, Blood - QWBA",[3],5.62 μg equivalents/g
same,"Radioactivity concentration, Bone Marrow",[3],18.3 μg equivalents/g
same,"Radioactivity concentration, Bone Surface",[3],0.513 μg equivalents/g
same,"Radioactivity concentration, Cecum",[3],231 μg equivalents/g
same,"Radioactivity concentration, Cerebellum",[3],2.08 μg equivalents/g
same,"Radioactivity concentration, Cerebrum",[3],1.61 μg equivalents/g
